# According to US10058534B2, “Benzothiophene derivatives and compositions thereof as selective estrogen receptor degraders” (NOVARTIS AG, priority 2013, dated 2018):
# Experiments:
# [1] = biological target: ER (endogenous, MCF7 cells) (Homo sapiens (Human), UniProt P03372); assay: ER transcription assay (MCF7 cells), ERE-luciferase reporter; assay type: cell-based; settings: inflection point of the inhibition of transcription in MCF7 cells; 0.1 nM estradiol, 24 hours; read-out: MCF7 IC50
# From the text: ER Transcription Assay (MCF7 Cells)
# The ER transcription assay is a reporter assay that is based on the ability of ER to induce transcription from a luciferase reporter gene containing estrogen response elements (EREs) in the promoter/enhancer region. When the reporter gene is transfected in MCF7 cells (containing endogenous ER), transcription is reflected by the level of luciferase expression.
# A day before transfection, cells are split into a T75 flask at a cell density of 300,000 cells/mL (10 mL total) and allowed to attach overnight in a humidified CO2 incubator at 37° C.
# Approximately 20 ug DNA is mixed in OptiMEM (Invitrogen) to a total volume of 650 μL. Following incubation, the OptiMEM-DNA mixture is added to the OptiMEM-Lipofectin mix and incubated for 15 minutes at 37° C. The DNA-Lipofectin mixture is then added directly to the T75 flask and the flask is returned to the incubator.
# Normally, DMSO (used as a vehicle) is included to achieve a final concentration of 0.1% when added to the cells. Transfected cells are trypsinized, resuspended in DMEM/F12/10% charcoal-stripped serum and added to the 96-well plate at 25,000 cells/well in 90 μL of media. The plate is then returned to the incubator for 24 hours.
# After incubation with compounds for 24 hours, Firefly and Renilla luciferase activities are measured to determine ER transcriptional activity. Media is removed from 96-well plates by decanting and blotting on paper towels.
# One second total read time after a one second delay.
# One second total read time after one second delay. If Firefly luciferase signal is high, Renilla assay must be done an hour after the Firefly assay due to incomplete squelching of Firefly signal.
# (§1) The column titled MCF7 IC50 reports the inflection point of the inhibition of transcription in MCF7 cells as described above. Percentage ERα remaining reports the remaining ERα protein measured at 10 μM concentration of the ligand as described above. The column ERα IC50 reports the inflection point of the degradation in response to the ligand concentration.
# ERα = ERα (Homo sapiens (Human), UniProt P03372); assay: ERα degradation (MCF7 cells), in-cell Western; assay type: cell-based; settings: for IC50: inflection point of the degradation in response to ligand concentration; for IC50 / % ERα remaining: MCF7 cells; for % ERα remaining: remaining ERα protein at 10 μM ligand, relative to DMSO control
# Experimental: ERα Degradation (MCF7 Cells)
# as §1
# Chain of ER (endogenous, MCF7 cells) (P03372 whole entry): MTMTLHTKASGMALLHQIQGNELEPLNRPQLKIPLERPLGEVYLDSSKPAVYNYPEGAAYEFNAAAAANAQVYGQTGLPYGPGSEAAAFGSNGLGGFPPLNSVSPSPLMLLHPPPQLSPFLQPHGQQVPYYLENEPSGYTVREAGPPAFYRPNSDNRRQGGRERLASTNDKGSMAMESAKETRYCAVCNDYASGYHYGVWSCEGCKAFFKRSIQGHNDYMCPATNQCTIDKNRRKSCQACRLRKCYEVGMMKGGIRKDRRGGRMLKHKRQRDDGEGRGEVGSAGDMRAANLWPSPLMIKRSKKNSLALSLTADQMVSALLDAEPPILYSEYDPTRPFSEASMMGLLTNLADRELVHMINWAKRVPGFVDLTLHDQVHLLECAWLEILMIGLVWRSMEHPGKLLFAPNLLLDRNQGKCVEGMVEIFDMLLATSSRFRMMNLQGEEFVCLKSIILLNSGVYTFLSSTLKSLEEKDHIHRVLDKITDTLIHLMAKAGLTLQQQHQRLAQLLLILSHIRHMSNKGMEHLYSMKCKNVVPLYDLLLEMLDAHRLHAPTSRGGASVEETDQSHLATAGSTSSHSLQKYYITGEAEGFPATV
# Chain of ERα (P03372 whole entry): as above
smiles,measurement,setting,value
"CC(F)c1ccccc1-c1sc2cc(O)ccc2c1Oc1ccc(/C=C/C(=O)O)cc1 (stereo not drawn) [Example 111, (E)-3-(4-((2-(2-(1-fluoroethyl)phenyl)-6-hydroxybenzo[b]thiophen-3-yl)oxy)phenyl)acrylic acid]",IC50,[1],25 nM
same,IC50,ERα,0.3 nM
same,% ERα remaining,ERα,17%
"O=C(O)/C=C/c1ccc(Oc2c(-c3ccc(F)cc3CN3CCCC3=O)sc3cc(O)ccc23)cc1 [Example 99, (E)-3-(4-((2-(4-fluoro-2-((2-oxopyrrolidin-1-yl)methyl)phenyl)-6-hydroxybenzo[b]thiophen-3-yl)oxy)phenyl)acrylic acid]",IC50,[1],544 nM
same,% ERα remaining,ERα,14%
"N#CCc1ccccc1-c1sc2cc(O)ccc2c1Oc1ccc(/C=C/C(=O)O)cc1 [Example 94, (E)-3-(4-((2-(2-(cyanomethyl)phenyl)-6-hydroxybenzo[b]thiophen-3-yl)oxy)phenyl)acrylic acid]",IC50,[1],86 nM
same,% ERα remaining,ERα,20%
"O=C(O)/C=C/c1ccc(Oc2c(-c3ccccc3C3CCC3)sc3cc(O)ccc23)cc1 [Example 89, (E)-3-(4-((2-(2-cyclobutylphenyl)-6-hydroxybenzo[b]thiophen-3-yl)oxy)phenyl)acrylic acid]",IC50,[1],19 nM
same,IC50,ERα,0.5 nM
same,% ERα remaining,ERα,18%
"CCCn1cnc(/C=C/c2ccc(Oc3c(-c4ccc(O)cc4)sc4cc(O)ccc34)cc2)c1 [Example 74, (E)-2-(4-hydroxyphenyl)-3-(4-(2-(1-propyl-1H-imidazol-4-yl)vinyl)phenoxy)benzo [b]thiophen-6-ol]",IC50,[1],58 nM
same,IC50,ERα,10 nM
same,% ERα remaining,ERα,32%
"CC(=O)/C=C/c1ccc(Oc2c(-c3ccc(C(F)(F)F)cc3)sc3cc(O)ccc23)cc1 [Example 121, (E)-4-(4-((6-hydroxy-2-(4-(trifluoromethyl)phenyl)benzo[b]thiophen-3-yl)oxy)phenyl)but-3-en-2-one]",IC50,[1],214 nM
same,% ERα remaining,ERα,56%
"CNC(=O)/C=C/c1ccc(Oc2c(-c3ccc(C(F)(F)F)cc3)sc3cc(O)ccc23)cc1 [Example 70, (E)-3-(4-((6-hydroxy-2-(4-(trifluoromethyl)phenyl)benzo[b]thiophen-3-yl)oxy)phenyl)-N-methylacrylamide]",IC50,[1],41 nM
same,IC50,ERα,9 nM
same,% ERα remaining,ERα,32%
"CC(C)OC(=O)/C=C/c1ccc(Oc2c(-c3ccccc3C(C)C)sc3cc(O)ccc23)cc1 [Example 81, (E)-isopropyl 3-(4-((6-hydroxy-2-(2-isopropylphenyl)benzo[b]thiophen-3-yl)oxy)phenyl)acrylate]",IC50,[1],320 nM
same,% ERα remaining,ERα,29%
"CC(C)c1ccccc1-c1sc2cc(O)ccc2c1Oc1ccc(/C=C/c2nnc(C3CC3)o2)cc1 [Example 104, (E)-3-(4-(2-(5-cyclopropyl-1,3,4-oxadiazol-2-yl)vinyl)phenoxy)-2-(2-isopropylphenyl)benzo [b]thiophen-6-ol]",IC50,[1],32 nM
same,% ERα remaining,ERα,29%
"CN(C)Cc1ccccc1-c1sc2cc(O)ccc2c1Oc1ccc(/C=C/C(=O)O)cc1 [Example 77, (E)-3-(4-((2-(2-((dimethylamino)methyl)phenyl)-6-hydroxybenzo[b]thiophen-3-yl)oxy)phenyl)acrylic acid]",IC50,[1],44 nM
same,IC50,ERα,1.4 nM
same,% ERα remaining,ERα,15%
"Cc1occc1-c1sc2cc(O)ccc2c1Oc1ccc(/C=C/C(=O)O)cc1 [Example 131, (E)-3-(4-((6-hydroxy-2-(2-methylfuran-3-yl)benzo[b]thiophen-3-yl)oxy)phenyl)acrylic acid]",IC50,[1],815 nM
same,% ERα remaining,ERα,12%
"COc1ccc(-c2sc3cc(O)ccc3c2Oc2ccc(/C=C/C(=O)O)cc2)c(C(C)C)c1 [Example 134, (E)-3-(4-((6-hydroxy-2-(2-isopropyl-4-methoxyphenyl)benzo [b]thiophen-3-yl)oxy)phenyl)acrylic acid]",IC50,[1],380 nM
same,IC50,ERα,403 nM
same,% ERα remaining,ERα,12%
"CC(C)c1ccccc1-c1sc2cc(O)ccc2c1Oc1ccc(/C=C/C(=O)O)nc1 [Example 117, (E)-3-(5-((6-hydroxy-2-(2-isopropylphenyl)benzo [b]thiophen-3-yl)oxy)pyridin-2-yl)acrylic acid]",IC50,[1],54 nM
same,% ERα remaining,ERα,16%
"Cn1ccc2c(-c3sc4cc(O)ccc4c3Oc3ccc(/C=C/C(=O)O)cc3)cccc21 [Example 133, (E)-3-(4-((6-hydroxy-2-(1-methyl-1H-indol-4-yl)benzo[b]thiophen-3-yl)oxy)phenyl)acrylic acid]",IC50,[1],898 nM
same,% ERα remaining,ERα,17%
"COc1ccc(-c2sc3cc(O)ccc3c2Oc2ccc(/C=C/C(=O)O)cc2)c(C)n1 [Example 129, (E)-3-(4-((6-hydroxy-2-(6-methoxy-2-methylpyridin-3-yl)benzo[b]thiophen-3-yl)oxy)phenyl)acrylic acid]",IC50,[1],297 nM
same,% ERα remaining,ERα,22%
"CC(C)c1ccccc1-c1sc2cc(OC(=O)C(C)(C)C)ccc2c1Oc1ccc(/C=C/C(=O)O)cc1 [Example 135, (E)-3-(4-((2-(2-isopropylphenyl)-6-(pivaloyloxy)benzo[b]thiophen-3-yl)oxy)phenyl)acrylic acid]",IC50,[1],61 nM
same,% ERα remaining,ERα,19%
"COC(=O)/C=C/c1ccc(Oc2c(-c3ccc(O)c(C)c3)sc3cc(O)ccc23)cc1 [Example 41, (E)-methyl 3-(4-((6-hydroxy-2-(4-hydroxy-3-methylphenyl)-benzo[b]thiophen-3-yl)oxy)phenyl)acrylate]",IC50,[1],10000 nM
same,% ERα remaining,ERα,32%
"CCCc1nnc(/C=C/c2ccc(Oc3c(-c4ccccc4C(C)C)sc4cc(O)ccc34)cc2)[nH]1 [Example 107, (E)-2-(2-isopropylphenyl)-3-(4-(2-(5-propyl-4H-1,2,4-triazol-3-yl)vinyl)phenoxy)benzo [b]thiophen-6-ol]",IC50,[1],66 nM
same,IC50,ERα,4 nM
same,% ERα remaining,ERα,29%
"Cc1cccc(C(C)C)c1-c1sc2cc(O)ccc2c1Oc1ccc(/C=C/C(=O)O)cc1 [Example 124, (E)-3-(4-((6-hydroxy-2-(2-isopropyl-6-methylphenyl)benzo[b]thiophen-3-yl)oxy)phenyl)acrylic acid]",IC50,[1],114 nM
same,IC50,ERα,1.4 nM
same,% ERα remaining,ERα,10%
"COc1ccc(-c2sc3cc(O)ccc3c2Oc2ccc(/C=C/C(=O)O)cc2)c(C(F)(F)F)n1 [Example 91, (E)-3-(4-((6-hydroxy-2-(6-methoxy-2-(trifluoromethyl)pyridin-3-yl)benzo[b]thiophen-3-yl)oxy)phenyl)acrylic acid]",IC50,[1],23 nM
same,% ERα remaining,ERα,16%
"O=C(O)/C=C/c1ccc(Oc2c(-c3ccccc3)sc3cc(O)ccc23)cc1 [Example 60, (E)-3-(4-((6-hydroxy-2-phenylbenzo[b]thiophen-3-yl)oxy)phenyl)-acrylic acid]",IC50,ERα,26 nM
same,% ERα remaining,ERα,23%
"CCOC(=O)/C=C/c1ccc(Oc2c(-c3ccc(O)cc3)sc3cc(O)ccc23)cc1C [Example 34, (E)-ethyl 3-(4-((6-hydroxy-2-(4-hydroxyphenyl)benzo[b]thiophen-3-yl)oxy)-2-methylphenyl)acrylate]",IC50,ERα,112 nM
same,% ERα remaining,ERα,42%
"COCc1ccccc1-c1sc2cc(O)ccc2c1Oc1ccc(/C=C/C(=O)O)cc1 [Example 80, (E)-3-(4-((6-hydroxy-2-(2-(methoxymethyl)phenyl)benzo[b]thiophen-3-yl)oxy)phenyl)acrylic acid]",% ERα remaining,ERα,14%
"O=C(O)/C=C/c1ccc(Oc2c(-c3ccc(C(F)(F)F)cc3C(F)(F)F)sc3cc(O)ccc23)cc1 [Example 11, (E)-3-(4-((2-(2,4-bis(trifluoromethyl)phenyl)-6-hydroxy-benzo[b]thiophen-3-yl)oxy)phenyl)-acrylic acid]",IC50,ERα,1 nM
same,% ERα remaining,ERα,15%
"O=C(O)/C=C/c1ccc(Oc2c(-c3ccc(O)cc3)sc3c(F)c(O)c(F)cc23)cc1 [Example 38, (E)-3-(4-((5,7-difluoro-6-hydroxy-2-(4-hydroxyphenyl)benzo[b]thiophen-3-yl)oxy)phenyl)acrylic acid]",IC50,ERα,22 nM
same,% ERα remaining,ERα,25%
O=C(O)/C=C/c1ccc(-c2c(-c3ccc(O)cc3)sc3cc(O)ccc23)cc1 [reference compound],ER Percentage remaining,"ERα; degradation potential, comparison of X position",76 Percentage
"O=C(O)/C=C/c1ccc(Oc2c(-c3ccc(C(F)(F)F)cc3)sc3cc(O)ccc23)cc1 [Example 3, (E)-3-(4-((6-hydroxy-2-(4-(trifluoromethyl)phenyl)benzo[b]thiophen-3-yl)oxy)phenyl)acrylic acid]",IC50,ERα,34 nM
same,% ERα remaining,ERα,18%
